Experimental data as given in patent US20090099141A1, “COMPOSITIONS AND METHODS FOR TREATING VITAMIN D DEFICIENCIES” (priority 2005, published 2009).

Assay: Serum level of 25(OH)D in an adult human after oral 250 μg (10,000 IU) vitamin D3 tablets (Nichols method)
Type: in vivo
Procedure: During the winter months an adult living in a northern region of the United States receiving no vitamin D supplements other than through their normal diet is found to have a serum level of 25(OH)D of about 25 nmole/L. The person is provided with four (4) blister packs, each pack containing four (4) 250 μg (10,000 IU) of vitamin D3. The blister pack has instructions to take one tablet by mouth once a week. The person is instructed to take all of the tablets according to instructions provided on the pack. Blood samples are drawn each week just before a tablet is taken and the serum levels of 25(OH)D are determined. Serum levels of 25(OH)D can be determined by the Nichols method (catalog no. 40-2135; Nichols Institute Diagnostics). Within approximately two months, serum levels increase by about 15 to about 20 nmole/L to a level of at least about 40 nmole/L.
During the winter months an adult living in a northern region of the United States receiving no vitamin D supplements other than through their normal diet is found to have a serum level of 25(OH)D of about 18 nmole/L. The person is provided with four (4) blister packs, each pack having one tablet for each day of the month [about thirty (30) tablets], and each tablet containing 250 μg (10,000 IU) of vitamin D3. The blister pack has instructions to take one tablet by mouth once a day, noting on the pack, where indicated, the date and time each tablet is taken. The person is instructed to take all of the tablets according to instructions provided on the pack. Blood samples are drawn after one (1) week and each week thereafter at approximately the same time and the serum levels of 25(OH)D are determined. Serum levels of 25(OH)D can be determined by the Nichols method (catalog no. 40-2135; Nichols Institute Diagnostics). Within approximately two months, serum levels increase by at least 100 nmole/L to a level of at least about 120 nmole/L and, within about 4 months, increase by at least about 180 nmole/L to a level of at least about 200 nmole/L.
During the winter months an adult living in a northern region of the United States receiving no vitamin D supplements other than through their normal diet is found to have a serum level of 25(OH)D of about 35 nmole/L. The person is provided with four (4) blister packs, each pack containing fifteen (15) 250 μg (10,000 IU) of vitamin D3. The blister pack has instructions to take one tablet by mouth once every other day, noting on the pack, where indicated, the date and time each tablet is taken. The person is instructed to take all of the tablets according to instructions provided on the pack. Blood samples are drawn each week at approximately the same time and the serum levels of 25(OH)D are determined. Serum levels of 25(OH)D can be determined by the Nichols method (catalog no. 40-2135; Nichols Institute Diagnostics). Within approximately one-month serum levels increase by at least about 60-70 nmole/L to a level of at least about 100 nmole/L and within about 4 months […] a level of about 120 nmole/L.

[1] = adult female, baseline about 18 nmole/L, 250 μg (10,000 IU) tablet by mouth once a day, within about 4 months
[2] = adult female, baseline about 18 nmole/L, 250 μg (10,000 IU) tablet by mouth once a day, within approximately two months
[3] = adult male, baseline about 35 nmole/L, 250 μg (10,000 IU) tablet by mouth once every other day, within approximately one month

C=C1CC[C@H](O)C/C1=C/C=C1\CCC[C@]2(C)[C@@H]([C@H](C)CCCC(C)C)CC[C@@H]12 [vitamin D3]
increase in serum level of 25(OH)D [1]: at least 180 nmole/L
serum level of 25(OH)D [1]: at least 200 nmole/L
increase in serum level of 25(OH)D [2]: at least 100 nmole/L
serum level of 25(OH)D [2]: at least 120 nmole/L
serum level of 25(OH)D (adult male, baseline about 25 nmole/L, 250 μg (10,000 IU) tablet by mouth once a week, within approximately two months): at least 40 nmole/L
serum level of 25(OH)D (adult male, baseline about 35 nmole/L, 250 μg (10,000 IU) tablet by mouth once every other day, within about 4 months): about 120 nmole/L
increase in serum level of 25(OH)D [3]: 60 to 70 nmol/L
serum level of 25(OH)D [3]: at least 100 nmole/L
